We go through 16 compounds from EP3436445B1, “HISTONE DEMETHYLASE INHIBITORS” (Celgene Quanticel Research, Inc., priority 2016, dated 2017).

SMILES strings stand for the structures.

Test [1] addresses T1, JMJD2C (Homo sapiens, UniProt Q9H3R0).
T1 construct: purchased BPS Bioscience 50105
T1 sequence (Q9H3R0 2-372): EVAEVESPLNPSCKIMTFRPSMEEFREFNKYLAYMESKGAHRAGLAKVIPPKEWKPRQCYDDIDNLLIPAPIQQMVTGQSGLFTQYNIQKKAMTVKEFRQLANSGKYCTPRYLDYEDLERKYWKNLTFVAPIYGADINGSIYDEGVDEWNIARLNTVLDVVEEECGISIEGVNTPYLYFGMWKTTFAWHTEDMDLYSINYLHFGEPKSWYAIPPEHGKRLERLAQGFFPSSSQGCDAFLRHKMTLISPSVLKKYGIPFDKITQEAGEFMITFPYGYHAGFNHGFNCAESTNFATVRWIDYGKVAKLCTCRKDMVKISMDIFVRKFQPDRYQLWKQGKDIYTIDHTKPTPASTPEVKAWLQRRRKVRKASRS
As to the kind of experiment: JMJD2C in vitro enzyme inhibition assay (TR-FRET). To be noted: Table 5; 0.3 nM JMJD2C, H3K9me3-biotin labeled peptide. In kind it is biochemical. The text has this: (§1) This assay determines the ability of a test compound to inhibit Jarid1B, JMJD2C and JMJD3 demethylase activity. Baculovirus expressed Jarid1B (GenBank Accession #NM-006618, AA 2-751) was purchased from BPS Bioscience (Cat #50121) or custom made by MolecularThroughput. Baculovirus expressed JMJD2C (GenBank Accession #BC143571, AA 2-372) was purchased from BPS Bioscience (Cat#50105). Baculovirus expressed JMJD3 (GenBank Accession #NM-001080424, AA1043-end) was purchased from BPS Bioscience (Cat#50115).
The ability of test compounds to inhibit the activity of JMJD2C was determined in 384-well plate format under the following reaction conditions: 0.3 nM JMJD2C, 300 nM H3K9me3-biotin labeled peptide (Anaspec cat #64360), 2 µM alpha-ketoglutaric acid in assay buffer of 50 mM HEPES, pH7.3, 0.005% Brij35, 0.5 mM TCEP, 0.2 mg/ml BSA, 50 µM sodium L-ascorbate, and 2 µM ammonium iron(II) sulfate. Reaction product was determined quantitatively by TR-FRET after the addition of detection reagent Phycolink Streptavidin-allophycocyanin (Prozyme) and Europium-anti-di-methylated histone H3 lysine 9 (H3K9me2) antibody (PerkinElmer) in the presence of 5 mM EDTA in LANCE detection buffer (PerkinElmer) at a final concentration of 50 nM and 1 nM, respectively.
(§2) The assay reaction was initiated by the following: 2 µl of the mixture of 900 nM H3K9me3-biotin labeled peptide and 6 µM alpha-ketoglutaric acid with 2 µl of 11-point serial diluted inhibitor in 3% DMSO were added to each well of the plate, followed by the addition of 2 µl of 0.9 nM JMJD2C to initiate the reaction. The reaction mixture was incubated at room temperature for 30 minutes, and terminated by the addition of 6 µl of 5 mM EDTA in LANCE detection buffer containing 100 nM Phycolink Streptavidin-allophycocyanin and 2 nM Europium-anti-H3K9me2 antibody. Plates were read by EnVisionMultilabel Reader in TR-FRET mode (excitation at 320 nm, emission at 615 nm and 665 nm) after 1 hour incubation at room temperature. A ratio was calculated (665/615) for each well and fitted to determine inhibition constant (IC50).

Test [2] addresses T2, Jarid1B (Homo sapiens, UniProt Q9UGL1).
T2 construct: purchased BPS Bioscience (or custom made by MolecularThroughput) 50121
T2 sequence (Q9UGL1 2-751): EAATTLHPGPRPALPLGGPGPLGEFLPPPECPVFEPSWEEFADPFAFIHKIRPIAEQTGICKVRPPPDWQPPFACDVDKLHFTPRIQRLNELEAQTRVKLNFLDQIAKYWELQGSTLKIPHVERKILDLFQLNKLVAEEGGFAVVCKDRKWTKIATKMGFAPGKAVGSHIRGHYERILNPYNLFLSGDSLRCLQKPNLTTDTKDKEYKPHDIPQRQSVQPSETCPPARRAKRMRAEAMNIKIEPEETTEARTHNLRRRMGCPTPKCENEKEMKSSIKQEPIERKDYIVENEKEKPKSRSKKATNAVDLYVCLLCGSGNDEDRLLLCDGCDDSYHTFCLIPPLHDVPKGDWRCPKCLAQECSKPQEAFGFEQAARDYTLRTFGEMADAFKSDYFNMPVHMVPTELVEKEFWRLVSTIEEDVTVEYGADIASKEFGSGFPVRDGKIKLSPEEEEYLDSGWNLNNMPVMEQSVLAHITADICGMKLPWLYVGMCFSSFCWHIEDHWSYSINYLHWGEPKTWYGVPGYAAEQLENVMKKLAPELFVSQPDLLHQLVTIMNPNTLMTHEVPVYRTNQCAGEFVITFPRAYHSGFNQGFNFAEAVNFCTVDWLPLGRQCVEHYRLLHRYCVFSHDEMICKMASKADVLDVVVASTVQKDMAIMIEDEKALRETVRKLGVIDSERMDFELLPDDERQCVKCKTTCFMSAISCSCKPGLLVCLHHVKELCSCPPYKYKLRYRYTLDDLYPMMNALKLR
As to the kind of experiment: Jarid1B in vitro enzyme inhibition assay (TR-FRET). Format: biochemical. To be noted: Table 5; 0.8 nM Jarid1B, H3K4me3-biotin labeled peptide; read-out: JARID1B IC5.
Source text: as §1
The ability of test compounds to inhibit the activity of Jarid1B was determined in 384-well plate format under the following reaction conditions: 0.8 nM Jarid1B, 300 nM H3K4me3-biotin labeled peptide (Anaspec cat #64357), 2 µM alpha-ketoglutaric acid in assay buffer of 50 mM HEPES, pH7.3, 0.005% Brij35, 0.5 mM TCEP, 0.2 mg/ml BSA, 50 µM sodium L-ascorbate, and 2 µM ammonium iron(II) sulfate. Reaction product was determined quantitatively by TR-FRET after the addition of detection reagent Phycolink Streptavidin-allophycocyanin (Prozyme) and Europium-anti-mono-or di-methylated histone H3 lysine 4 (H3K4me1-2) antibody (PerkinElmer) in the presence of 5 mM EDTA in LANCE detection buffer (PerkinElmer) at a final concentration of 25 nM and 1 nM, respectively.
as §2, with “nM H3K4me3-biotin” for “nM H3K9me3-biotin”, “DMSO was” for “DMSO were”, “of 2.4” for “of 0.9”, “nM Jarid1B” for “nM JMJD2C”, “containing 50” for “containing 100”, “nM Europium-anti-H3K4me1-2” for “nM Europium-anti-H3K9me2”

Regarding `CC(c1ccccc1)n1cnc(-c2cc(-c3nn[nH]c3C(F)(F)F)ccn2)c1` (centres unmarked) [Example 73, 2-[1-(1-phenylethyl)-1H-imidazol-4-yl]-4-[5-(trifluoromethyl)-1H-1,2,3-triazol-4-yl]pyridine], the IC50 in test [1] is over 10 µM; in test [2], 0.1 to 1 µM.

On to `CCC(c1ccccc1)n1cnc(-c2cc(-c3nn[nH]c3C(F)(F)F)ccn2)c1` (centres unmarked) [Example 74, 2-[1-(1-phenylpropyl)-1H-imidazol-4-yl]-4-[5-(trifluoromethyl)-1H-1,2,3-triazol-4-yl]pyridine], for which the figures for the IC50 in test [1] and in test [2] were over 10 µM and 0.1 to 1 µM, respectively.

For `FC(F)(F)COc1ccccc1Cn1cnc(-c2cc(-c3nn[nH]c3C(F)(F)F)ccn2)c1` [Example 76, 2-(1-{[2-(2,2,2-trifluoroethoxy)phenyl]methyl}-1H-imidazol-4-yl)-4-[5-(trifluoromethyl)-1H-1,2,3-triazol-4-yl]pyridine], the IC50 in test [1] is over 10 µM; in test [2], 0.1 to 1 µM.

Regarding `Fc1ccc(CCn2cnc(-c3cc(-c4nn[nH]c4C(F)(F)F)ccn3)c2)cc1` [Example 77], the IC50 in test [1] is over 10 µM; in test [2], at most 0.1 µM.

Take `Fc1cccc(CCn2cnc(-c3cc(-c4nn[nH]c4C(F)(F)F)ccn3)c2)c1` [Example 78, 2-{1-[2-(3-fluorophenyl)ethyl]-1H-imidazol-4-yl}-4-[5-(trifluoromethyl)-1H-1,2,3-triazol-4-yl]pyridine]: the IC50 is over 10 µM in test [1] and at most 0.1 µM in test [2].

As to `Fc1cccc(CCn2cnc(-c3cc(-c4nn[nH]c4C(F)(F)F)ccn3)c2)c1F` [Example 79, 2-{1-[2-(2,3-difluorophenyl)ethyl]-1H-imidazol-4-yl}-4-[5-(trifluoromethyl)-1H-1,2,3-triazol-4-yl]pyridine], the IC50 is over 10 µM in test [1] and at most 0.1 µM in test [2].

Consider `Fc1cccc(Cl)c1CCn1cnc(-c2cc(-c3nn[nH]c3C(F)(F)F)ccn2)c1` [Example 80, 2-{1-[2-(2-chloro-6-fluorophenyl)ethyl]-1H-imidazol-4-yl}-4-[5-(trifluoromethyl)-1H-1,2,3-triazol-4-yl]pyridine], for which the IC50 is over 10 µM in test [1] and 0.1 to 1 µM in test [2].

With `Fc1cc(F)c(CCn2cnc(-c3cc(-c4nn[nH]c4C(F)(F)F)ccn3)c2)cc1F` [Example 81, 4-[5-(trifluoromethyl)-1H-1,2,3-triazol-4-yl]-2-{1-[2-(2,4,5-trifluorophenyl)ethyl]-1H-imidazol-4-yl}pyridine], the IC50 in test [1] is over 10 µM; in test [2], at most 0.1 µM.

As for `Fc1cc(F)c(CCn2cnc(-c3cc(-c4nn[nH]c4C(F)(F)F)ccn3)c2)c(F)c1` [Example 82, 4-[5-(trifluoromethyl)-1H-1,2,3-triazol-4-yl]-2-{1-[2-(2,4,6-trifluorophenyl)ethyl]-1H-imidazol-4-yl}pyridine], the IC50 in test [1] is over 10 µM; in test [2], 0.1 to 1 µM.

`FC(F)(F)c1[nH]nnc1-c1ccnc(-c2cn(CC3CCc4ccccc43)cn2)c1` (centres unmarked) [Example 83, 2-{1-[(2,3-dihydro-1H-inden-1-yl)methyl]-1H-imidazol-4-yl}-4-[5-(trifluoromethyl)-1H-1,2,3-triazol-4-yl]pyridine]: the IC50 in test [1] was 1 to 10 µM; in test [2] it was at most 0.1 µM.

As to `Fc1ccccc1CCn1cnc(-c2cc(-c3nn[nH]c3C(F)(F)F)ccn2)c1` [Example 84, 2-{1-[2-(2-fluorophenyl)ethyl]-1H-imidazol-4-yl}-4-[5-(trifluoromethyl)-1H-1,2,3-triazol-4-yl]pyridine], the results for the IC50 in test [1] and in test [2] were over 10 µM and at most 0.1 µM, respectively.

As for `Fc1ccc2c(c1)C(n1cnc(-c3cc(-c4nn[nH]c4C(F)(F)F)ccn3)c1)CC2` (centres unmarked) [Example 85, 2-[1-(6-fluoro-2,3-dihydro-1H-inden-1-yl)-1H-imidazol-4-yl]-4-[5-(trifluoromethyl)-1H-1,2,3-triazol-4-yl]pyridine], the IC50 in test [1] was 1 to 10 µM; in test [2], at most 0.1 µM.

With `Fc1ccc(CCn2cnc(-c3cc(-c4nn[nH]c4C(F)(F)F)ccn3)c2)c(F)c1` [Example 86, 2-{1-[2-(2,4-difluorophenyl)ethyl]-1H-imidazol-4-yl}-4-[5-(trifluoromethyl)-1H-1,2,3-triazol-4-yl]pyridine], the results for the IC50 in test [1] and in test [2] were over 10 µM and at most 0.1 µM, respectively.

For `Fc1cccc(F)c1CCn1cnc(-c2cc(-c3nn[nH]c3C(F)(F)F)ccn2)c1` [Example 87, 2-{1-[2-(2,6-difluorophenyl)ethyl]-1H-imidazol-4-yl}-4-[5-(trifluoromethyl)-1H-1,2,3-triazol-4-yl]pyridine], the IC50 in test [1] was over 10 µM; in test [2], 0.1 to 1 µM.

With `Fc1ccc(F)c(CCn2cnc(-c3cc(-c4nn[nH]c4C(F)(F)F)ccn3)c2)c1` [Example 88, 2-{1-[2-(2,5-difluorophenyl)ethyl]-1H-imidazol-4-yl}-4-[5-(trifluoromethyl)-1H-1,2,3-triazol-4-yl]pyridine], the IC50 in test [1] was over 10 µM; in test [2], at most 0.1 µM.

`O=C(c1ccccc1)N1CCC[C@@H](n2cnc(-c3cc(-c4nn[nH]c4C(F)(F)F)ccn3)c2)C1` [Example 89, 2-{1-[(3R)-1-benzoylpiperidin-3-yl]-1H-imidazol-4-yl}-4-[5-(trifluoromethyl)-1H-1,2,3-triazol-4-yl]pyridine]: the IC50 is over 10 µM in test [1] and at most 0.1 µM in test [2].
